As a reminder, the IC50 is the concentration that gives 50% inhibition.

The target of this assay is Recombinant human ATX (Homo sapiens (Human), UniProt Q13822). Description: ATX inhibition assay (choline release, Amplex Red fluorescence). In kind it is biochemical. To be noted: ATX 10 nM, LPC 18:1 10 μM, 37° C., 20 min pre-incubation; mean of n≧2. The procedure, abridged: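 Activity was taken from the slope of resorufin fluorescence (530/590 nm, read every 2 min for 40 min at 37 °C) produced by choline liberated from 10 μM oleoyl LPC.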
For `Cc1csc(C(O)C2CCN(C(=O)/C=C/c3ccc(Cl)cc3Cn3nnc(C)n3)CC2)n1` (stereo not drawn) [Example 63, (E)-3-(4-Chloro-2-((5-methyl-2H-tetrazol-2-yl)methyl)phenyl)-1-(4-(hydroxy(4-methylthiazol-2-yl)methyl)piperidin-1-yl)prop-2-en-1-one], the IC50 came out at 0.0055 µM.

In the case of `Cc1nnn(Cc2cc(Cl)ccc2/C=C/C(=O)N2CCC(c3ccc(F)cc3)CC2)n1` [Example 64, (E)-3-(4-Chloro-2-((5-methyl-2H-tetrazol-2-yl)methyl)phenyl)-1-(4-(4-fluorophenyl)piperidin-1-yl)prop-2-en-1-one], the IC50 amounted to 0.031 µM.

In the case of `Cc1nnn(Cc2cc(C(F)(F)F)ccc2/C=C/C(=O)N2CCN(CC(=O)OC(C)(C)C)C[C@H]2C)n1` [Example 65, (R,E)-tert-Butyl 2-(3-methyl-4-(3-(2-((5-methyl-2H-tetrazol-2-yl)methyl)-4-(trifluoromethyl)phenyl)acryloyl)piperazin-1-yl)acetate], the half-maximal inhibitory concentration (IC50) was 0.0055 µM.

As for `COC(=O)C1CCN(C(=O)/C=C/c2ccc(C(F)(F)F)cc2Cn2nnc(C)n2)CC1` [Example 67, (E)-Methyl 1-(3-(2-((5-methyl-2H-tetrazol-2-yl)methyl)-4-(trifluoromethyl)phenyl)acryloyl)piperidine-4-carboxylate], the IC50 was 0.0088 µM.

For `Cc1nnn(Cc2cc(C(F)(F)F)ccc2/C=C/C(=O)N2CCN(C(=O)OC(C)(C)C)CC2)n1` [Example 68, (E)-tert-Butyl-4-(3-(2-((5-methyl-2H-tetrazol-2-yl)methyl)-4-(trifluoromethyl)phenyl)acryloyl)piperazine-1-carboxylate], the IC50 came out at 0.0045 µM.

Consider `Cc1nnn(Cc2cc(C(F)(F)F)ccc2/C=C/C(=O)N2CCN(Cc3coc(C)n3)C[C@H]2C)n1` [Example 69, (R,E)-3-(2-((5-Methyl-2H-tetrazol-2-yl)methyl)-4-(trifluoromethyl)phenyl)-1-(2-methyl-4-((2-methyloxazol-4-yl)methyl)piperazin-1-yl)prop-2-en-1-one], for which the IC50 was found to be 0.002 µM.

On to `Cc1nnn(Cc2cc(C(F)(F)F)ccc2/C=C/C(=O)N2CCN(Cc3cnn(C)c3)C[C@H]2C)n1` [Example 70, (R,E)-3-(2-((5-Methyl-2H-tetrazol-2-yl)methyl)-4-(trifluoromethyl)phenyl)-1-(2-methyl-4-((1-methyl-1H-pyrazol-4-yl)methyl)piperazin-1-yl)prop-2-en-1-one], for which the IC50 amounted to 0.0042 µM.

In the case of `Cc1nnn(Cc2cc(C(F)(F)F)ccc2/C=C/C(=O)N2CCC(Cc3noc(C)n3)CC2)n1` [Example 71, (E)-1-(4-((5-Methyl-1,2,4-oxadiazol-3-yl)methyl)piperidin-1-yl)-3-(2-((5-methyl-2H-tetrazol-2-yl)methyl)-4-(trifluoromethyl)phenyl)prop-2-en-1-one], the half-inhibitory concentration (IC50) is 0.006 µM.

On to `Cc1ccc(/C=C/C(=O)N2CCC(Cc3nnc(C)o3)CC2)c(Cn2nnc(C)n2)c1` [Example 72, (E)-1-(4-((5-Methyl-1,3,4-oxadiazol-2-yl)methyl)piperidin-1-yl)-3-(4-methyl-2-((5-methyl-2H-tetrazol-2-yl)methyl)phenyl)prop-2-en-1-one], for which the IC50 came out at 0.29 µM.

For the compound `Cc1nnn(Cc2cc(Cl)ccc2/C=C/C(=O)N2CCN(Cc3cnn(C)c3)C[C@H]2C)n1` [Example 73, (R,E)-3-(4-Chloro-2-((5-methyl-2H-tetrazol-2-yl)methyl)phenyl)-1-(2-methyl-4-((1-methyl-1 H-pyrazol-4-yl)methyl)piperazin-1-yl)prop-2-en-1-one], the IC50 was 0.0042 µM.

For the compound `Cc1nnn(Cc2cc(C(F)(F)F)ccc2/C=C/C(=O)N2CCN(Cc3coc(C)n3)CC2)n1` [Example 74, (E)-3-(2-((5-Methyl-2H-tetrazol-2-yl)methyl)-4-(trifluoromethyl)phenyl)-1-(4-((2-methyloxazol-4-yl)methyl)piperazin-1-yl)prop-2-en-1-one], the half-maximal inhibitory concentration (IC50) was found to be 0.0055 µM.

In the case of `Cc1nnc(CC2CCN(C(=O)/C=C/c3ccc(Cl)cc3Cn3nccn3)CC2)o1` [Example 75, (E)-3-(2-((2H-1,2,3-Triazol-2-yl)methyl)-4-chlorophenyl)-1-(4-((5-methyl-1,3,4-oxadiazol-2-yl)methyl)piperidin-1-yl)prop-2-en-1-one], the IC50 amounted to 1.44 µM.

Consider `Cc1noc(Cc2cc(Cl)ccc2/C=C/C(=O)N2CCN(Cc3coc(C)n3)CC2)n1` [Example 76, (E)-3-(4-Chloro-2-((3-methyl-1,2,4-oxadiazol-5-yl)methyl)phenyl)-1-(4-((2-methyloxazol-4-yl)methyl)piperazin-1-yl)prop-2-en-1-one], for which the IC50 stood at 0.073 µM.

Regarding `Cc1nnc(CC2CCN(C(=O)/C=C/c3ccc(Cl)cc3Cn3ncnn3)CC2)o1` [Example 77, (E)-3-(2-((2H-Tetrazol-2-yl)methyl)-4-chlorophenyl)-1-(4-((5-methyl-1,3,4-oxadiazol-2-yl)methyl)piperidin-1-yl)prop-2-en-1-one], the IC50 came to 1.99 µM.

In the case of `Cc1nnn(Cc2c(F)cccc2/C=C/C(=O)N2CCC(Cc3nnc(C)o3)CC2)n1` [Example 78, (E)-3-(3-Fluoro-2-((5-methyl-2H-tetrazol-2-yl)methyl)phenyl)-1-(4-((5-methyl-1,3,4-oxadiazol-2-yl)methyl)piperidin-1-yl)prop-2-en-1-one], the concentration for half-maximal inhibition (IC50) is 1.46 µM.

On to `Cc1nnn(Cc2ccc(F)cc2/C=C/C(=O)N2CCC(Cc3nnc(C)o3)CC2)n1` [Example 79, (E)-3-(5-Fluoro-2-((5-methyl-2H-tetrazol-2-yl)methyl)phenyl)-1-(4-((5-methyl-1,3,4-oxadiazol-2-yl)methyl)piperidin-1-yl)prop-2-en-1-one], for which the 50% inhibitory concentration (IC50) was determined as 3.15 µM.

For the compound `Cc1cnn(Cc2cc(Cl)ccc2/C=C/C(=O)N2CCC(Cc3nnc(C)o3)CC2)n1` [Example 80, (E)-3-(4-Chloro-2-((4-methyl-2H-1,2,3-triazol-2-yl)methyl)phenyl)-1-(4-((5-methyl-1,3,4-oxadiazol-2-yl)methyl)piperidin-1-yl)prop-2-en-1-one], the IC50 worked out at 0.454 µM.

For `Cc1nnn(Cc2cc(C(F)(F)F)ccc2/C=C/C(=O)N2CCC(Cc3nnc(C)o3)CC2)n1` [Example 81, (E)-1-(4-((5-Methyl-1,3,4-oxadiazol-2-yl)methyl)piperidin-1-yl)-3-(2-((5-methyl-2H-tetrazol-2-yl)methyl)-4-(trifluoromethyl)phenyl)prop-2-en-1-one], the IC50 is 0.013 µM.

`Cc1nnn(Cc2cc(C#N)ccc2/C=C/C(=O)N2CCC(Cc3nnc(C)o3)CC2)n1` [Example 82, (E)-4-(3-(4-((5-Methyl-1,3,4-oxadiazol-2-yl)methyl)piperidin-1-yl)-3-oxoprop-1-en-1-yl)-3-((5-methyl-2H-tetrazol-2-yl)methyl)benzonitrile]: the IC50 was 0.785 µM.

Turning to `COc1ccc(/C=C/C(=O)N2CCC(Cc3nnc(C)o3)CC2)c(Cn2nnc(C)n2)c1` [Example 83, (E)-3-(4-Methoxy-2-((5-methyl-2H-tetrazol-2-yl)methyl)phenyl)-1-(4-((5-methyl-1,3,4-oxadiazol-2-yl)methyl)piperidin-1-yl)prop-2-en-1-one], the half-inhibitory concentration (IC50) came to 0.846 µM.

As for `COCC(=O)N(C)C1CCN(C(=O)/C=C/c2ccc(C(F)(F)F)cc2Cn2nnc(C)n2)CC1` [Example 84, (E)-2-Methoxy-N-methyl-N-(1-(3-(2-((5-methyl-2H-tetrazol-2-yl)methyl)-4-(trifluoromethyl)phenyl)acryloyl)piperidin-4-yl)acetamide], the IC50 was determined as 0.0081 µM.

The values are drawn from patent US9763957B2, “Autotaxin inhibitors” (Novartis AG, priority 2013, dated 2017).
